Patent US20110160196A1, “FACTOR XA INHIBITORS” (Millennium Pharmaceuticals, Inc., priority 2007, published 2011)

Biological target: T1, human plasma protein factor Xa (Homo sapiens, UniProt P00742)
T1 construct: The human plasma protein factor Xa was purchased; purchased Haematologic Technologies (Essex Junction, Vt.); host or cells: human plasma
Assay: Factor Xa IC50 determination (cleavage of paranitroanilide substrate S-2765)
Assay type: biochemical
Settings: factor Xa 1 nM, S-2765 100 μM, Tris buffered saline pH 7.4, read at 405 nm
Excerpt: This example illustrates methods for evaluating the compounds of the invention, along with results obtained for such assays. The in vitro and in vivo human Factor Xa activities of the inventive compounds can be determined by various procedures known in the art, such as a test for their ability to inhibit the activity of human plasma Factor Xa. […] The IC50 value is the concentration (in nM) of the compound required to provide 50% inhibition of human Factor Xa proteolytic activity.
An in vitro assay for detecting and measuring inhibition activity against Factor Xa is as follows:
The substrate S-2765 (Z-D-Arg-Gly-Arg-pNA.HCl) was obtained from Diapharma (West Chester, Ohio).
The human plasma protein factor Xa was purchased from Haematologic Technologies (Essex Junction, Vt.).
All assays, which are performed in 96-well microtiter plates, measure proteolytic activity of the enzyme (factor Xa) by following cleavage of a paranitroanilide peptide substrate. The assay buffer used for proteolytic assays was Tris buffered saline (20 mM Tris, 150 mM NaCl, 5 mM CaCl2, 0.1% Bovine serum albumin (BSA), 5% Dimethly Sulfoxide (DMSO) pH 7.4). In a 96-well microtiter plate, inhibitor was serially diluted to give a range of final concentrations from 0.01 nM to 10 μM. Duplicate sets of wells were assayed and control wells without inhibitor were included. Enzyme was added to each well, (factor Xa concentration=1 nM), the plate was shaken for 5 seconds and then incubated for 5 minutes at room temperature. S-2765 was added (100 μM final) and the plate was shaken for 5 seconds (final volume in each well was 200 μl). The degree of substrate hydrolysis was measured at 405 nm on a Thermomax plate reader (Molecular Devices, Sunnyvale, Calif.) for 2 minutes. The initial velocities of substrate cleavage (mOD/min), for each range of inhibitor concentrations, were fitted to a four parameter equation using Softmax data analysis software. The parameter C, derived from the resulting curve-fit, corresponded to the concentration for half maximal inhibition (IC50).

T1 sequence (P00742 235-488 limits assumed): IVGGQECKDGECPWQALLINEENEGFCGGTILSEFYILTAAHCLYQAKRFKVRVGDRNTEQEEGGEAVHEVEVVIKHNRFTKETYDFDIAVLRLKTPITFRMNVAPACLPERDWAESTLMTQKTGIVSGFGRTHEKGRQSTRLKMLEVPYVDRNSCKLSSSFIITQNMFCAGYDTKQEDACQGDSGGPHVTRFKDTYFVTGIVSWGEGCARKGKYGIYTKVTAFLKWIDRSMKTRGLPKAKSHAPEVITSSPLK
T1 sequence (P00742 41-179 partner limits assumed): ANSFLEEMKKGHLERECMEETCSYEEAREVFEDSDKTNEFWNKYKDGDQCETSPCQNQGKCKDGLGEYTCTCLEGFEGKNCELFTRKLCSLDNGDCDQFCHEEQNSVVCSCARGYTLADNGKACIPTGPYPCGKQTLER

| SMILES | IC50 |
| --- | --- |
| O=C(NCc1cn(-c2ccc(-n3ccccc3=O)cc2N2CCC[C@@H](O)C2)nn1)c1ccc(Cl)s1 [Compound 22, 5-Chloro-N-((1-(2-((R)-3-hydroxypiperidin-1-yl)-4-(2-oxopyridin-1(2H)-yl)phenyl)-1H-1,2,3-triazol-4-yl)methyl)thiophene-2-carboxamide] | ≤ 100 nM |
| O=C(NCc1cn(-c2ccc(-n3ccccc3=O)cc2C(=O)NCc2nnn[nH]2)nn1)c1ccc(Cl)s1 [Compound 117, N-((1-(2-(((1H-Tetrazol-5-yl)methyl)carbamoyl)-4-(2-oxopyridin-1(2H)-yl)phenyl)-1H-1,2,3-triazol-4-yl)methyl)-5-chlorothiophene-2-carboxamide] | ≤ 100 nM |
| O=C(NCc1cn(-c2ccc(-n3ccccc3=O)cc2C(=O)N2CCC(O)CC2)nn1)c1ccc(Cl)s1 [Compound 115, 5-Chloro-N-((1-(2-(4-hydroxypiperidine-1-carbonyl)-4-(2-oxopyridin-1(2H)-yl)phenyl)-1H-1,2,3-triazol-4-yl)methyl)thiophene-2-carboxamide] | 100 to 500 nM |
| NCCNC(=O)c1cc(-n2ccccc2=O)ccc1-n1cc(CNC(=O)c2ccc(Cl)s2)nn1 [Compound 107, N-((1-(2-((2-Aminoethyl)carbamoyl)-4-(2-oxopyridin-1(2H)-yl)phenyl)-1H-1,2,3-triazol-4-yl)methyl)-5-chlorothiophene-2-carboxamide] | 100 to 500 nM |
| O=C(NCc1cn(-c2ccc(-n3ccccc3=O)cc2CN2CCSCC2)nn1)c1ccc(Cl)s1 [Compound 162, 5-Chloro-N-((1-(4-(2-oxopyridin-1(2H)-yl)-2-(thiomorpholinomethyl)phenyl)-1H-1,2,3-triazol-4-yl)methyl)thiophene-2-carboxamide] | ≤ 100 nM |

Now from value to molecule:

| IC50 | SMILES |
| --- | --- |
| ≤ 100 nM | O=C(NCc1cn(-c2ccc(-n3ccccc3=O)cc2OCc2nccn2Cc2ncc[nH]2)nn1)c1ccc(Cl)s1 [Compound 178, N-((1-(2-((1-((1H-imidazol-2-yl)methyl)-1H-imidazol-2-yl)methoxy)-4-(2-oxopyridin-1(2H)-yl)phenyl)-1H-1,2,3-triazol-4-yl)methyl)-5-chlorothiophene-2-carboxamide] |
| ≤ 100 nM | O=C(NCc1cn(-c2ccc(-n3ccccc3=O)cc2[N+](=O)[O-])nn1)c1ccc(Cl)s1 [Compound 44, 5-ChIoro-N-((1-(2-nitro-4-(2-oxopyridin-1(2H)-yl)phenyl)-1H-1,2,3-triazol-4-yl)methyl)thiophene-2-carboxamide] |
| ≤ 100 nM | O=C(NCc1cn(-c2ccc(-n3ccccc3=O)cc2OCCN2CCCC2)nn1)c1ccc(Cl)s1 [Compound 88, 5-Chloro-N-((1-(4-(2-oxopyridin-1(2H)-yl)-2-(2-(pyrrolidin-1-yl)ethoxy)phenyl)-1H-1,2,3-triazol-4-yl)methyl)thiophene-2-carboxamide] |
| ≤ 100 nM | Cn1ccnc1COc1cc(-n2ccccc2=O)ccc1-n1cc(CNC(=O)c2ccc(Cl)s2)nn1 [Compound 176, 5-Chloro-N-((1-(2-((1-methyl-1H-imidazol-2-yl)methoxy)-4-(2-oxopyridin-1(2H)-yl)phenyl)-1H-1,2,3-triazol-4-yl)methyl)thiophene-2-carboxamide] |
| ≤ 100 nM | CS(=O)(=O)CCCOc1cc(-n2ccccc2=O)ccc1-n1cc(CNC(=O)c2ccc(Cl)s2)nn1 [Compound 83, 5-Chloro-N-((1-(2-(3-(methylsulfonyl)propoxy)-4-(2-oxopyridin-1(2H)-yl)phenyl)-1H-1,2,3-triazol-4-yl)methyl)thiophene-2-carboxamide] |
| ≤ 100 nM | COc1cc(-n2ccccc2=O)ccc1-n1cc(CNC(=O)c2ccc(Cl)s2)nn1 [Compound 56, 5-Chloro-N-((1-(2-methoxy-4-(2-oxopyridin-1(2H)-yl)phenyl)-1H-1,2,3-triazol-4-yl)methyl)thiophene-2-carboxamide] |
| ≤ 100 nM | O=C(NCc1cn(-c2ccc(-n3ccccc3=O)cc2OCCCN2CCCCC2)nn1)c1ccc(Cl)s1 [Compound 94, 5-Chloro-N-((1-(4-(2-oxopyridin-1(2H)-yl)-2-(3-(piperidin-1-yl)propoxy)phenyl)-1H-1,2,3-triazol-4-yl)methyl)thiophene-2-carboxamide] |
